Among the data in US11377425B1, “Small molecule modulators of IL-17” (LEO Pharma A/S, priority 2018, dated 2022) are EC50 values, retold here.

Each structure is given as a SMILES string.

The target of this assay is T1, human IL-17AA (Homo sapiens, UniProt Q16552).
T1 construct: host or cells: HEK (human embryonic kidney) cells
T1 sequence (Q16552 24-155): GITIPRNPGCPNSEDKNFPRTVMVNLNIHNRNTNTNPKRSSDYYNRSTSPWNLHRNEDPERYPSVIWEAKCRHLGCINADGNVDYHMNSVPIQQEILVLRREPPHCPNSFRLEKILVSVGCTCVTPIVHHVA
In words: IL-8 release assay in human epithelial keratinocytes adult (HEKa). The following applies: HEKa cells, 3 ng/mL HEK-human IL-17AA + 10 ng/mL human TNFalpha; read-out: Rel EC50 IL-8 release assay. In kind it is cell-based. Here is the method: Example 138: IL-8 Release Assay in Human Epithelial Keratinocytes Adult (HEKa)
Keratinocytes were seeded at 3500 cells/well in 384-well ViewPlates (Perkin Elmer) in Epilife medium (Thermo Fisher) containing human keratinocyte growth supplement (HKGS) without hydrocortisone and incubated in a humid incubator at 37° C. 5% CO2, overnight. The following day growth medium was removed and 25 μl fresh Epilife medium added. 75 nL test compound in 100% DMSO was added into each well reserved for test compounds, by the use of acoustic pipetting. The remaining wells received an equal volume of DMSO only, as vehicle control, or terfenadine in DMSO, as a positive control for any cytotoxic compounds. Subsequently, another 25 μL Epilife medium was added to each well. Finally, wells containing test compounds and wells prepared to yield maximum stimulation received […] of 9 ng/mL recombinant, human embryonic kidney cell (HEK)-derived human IL-17AA+30 ng/mL human TNF-alpha, in Epilife medium. Wells prepared to define 100% inhibition of IL-17 effects received 25 μL of 30 ng/mL human TNF-alpha alone, in Epilife medium. Final concentrations were 3 ng/mL HEK-human IL-17AA+10 ng/mL human TNFalpha (maximum stimulation) and 10 ng/mL human TNFalpha alone (100% inhibition, Emax), respectively. Cells were incubated for 68-72 hours in the incubator. IL-8 released from the cells was measured by the use of a commercial homogenous time-resolved fluorescence (HTRF) assay (CisBio). 2 μL cell culture supernatant was transferred to a 384-well Proxiplate. 5 μL HTRF reagent was added and the plates incubated sealed in the dark for 3-22 hours at room temperature. Time-resolved fluorescence was read at 665 vs 620 nm, with excitation at 320 nm, and IL-8 levels calculated as percent of controls. Reduction of the amount of secreted IL-8 indicates decreased IL-17 signaling. Concentration response curves were fitted by the use of a four-parameter logistic equation. Relative IC50 and Emax were reported from curves showing acceptable fit (r^2>0.9). Cytotoxicity was measured in the cell-containing Viewplates following addition of 7 μL PrestoBlue (Thermo Fisher) and incubation for 2.5-3 hours at room temperature, by measuring fluorescence at 615 nm (excitation at 535 nm). Fluorescence was directly proportional to the amount of metabolic activity. Reduction of fluorescence signal indicated cytotoxicity.
Compounds of the present invention were tested in the IL-8 release assay in human epithelial keratinocytes.
Compounds having a Relative EC50 of X; wherein X<100 nM; are indicated with *
Compounds having a Relative EC50 of X; wherein 100 nM<X<1000 nM; are indicated with **
Compounds having a Relative EC50 of X; wherein 1000 nM<X; are indicated with ***

Turning to `Cc1n[nH]c(C)c1-c1ccc(NC(=O)[C@@H](NC(=O)c2ccnn2C2CCC2)C(C2CC2)C2CC2)cc1` [Example 114, 2-cyclobutyl-N-[(1S)-1-(dicyclopropylmethyl)-2-[4-(3,5-dimethyl-1H-pyrazol-4-yl)anilino]-2-oxo-ethyl]pyrazole-3-carboxamide], the EC50 was less than 100 nM. Next, `Cc1n[nH]c(C)c1-c1ccc(NC(=O)[C@@H](NC(=O)c2cnnn2C(C)C)C(C2CC2)C2CC2)cc1` [Example 292, N-[(1S)-1-(dicyclopropylmethyl)-2-[4-(3,5-dimethyl-1H-pyrazol-4-yl)anilino]-2-oxo-ethyl]-3-isopropyl-triazole-4-carboxamide]: less than 100 nM; `Cc1n[nH]c(C)c1-c1ccc(NC(=O)[C@@H](NC(=O)c2ccnn2C(C)C)[C@H]2CCOc3ccccc32)cc1` [Example 47, N-[(1S)-1-[(4S)-chroman-4-yl]-2-[4-(3,5-dimethyl-1H-pyrazo1-4-yl)anilino]-2-oxo-ethyl]-2-isopropyl-pyrazole-3-carboxamide]: less than 100 nM.

With `Cc1n[nH]c(C)c1-c1ccc(NC(=O)[C@@H](NC(=O)c2ccnn2C(C)C)C(C)C2CCC2)cc1` (single isomer, unassigned) [Example 190], the EC50 was less than 100 nM.

For `Cc1n[nH]c(C)c1-c1ccc(NC(=O)[C@@H](NC(=O)N2CCCC2C(C)(C)O)C2CCCCC2)cc1` (single isomer, unassigned) [Example 464], the EC50 was greater than 1000 nM. Then `CCCn1nccc1C(=O)N[C@H](C(=O)Nc1ccc(-c2c(CC)n[nH]c2CC)cc1)C(C1CC1)C1CC1` [Example 397, N-[(1S)-1-(dicyclopropylmethyl)-2-[4-(3,5-diethyl-1H-pyrazol-4-yl)anilino]-2-oxo-ethyl]-2-propyl-pyrazole-3-carboxamide], with less than 100 nM; and `CCC(c1ccccc1)C(NC(=O)c1ccnn1C)C(=O)Nc1ccc(-c2c(C)n[nH]c2C)cc1` (single isomer, unassigned) [Example 228], with 100 to 1000 nM; and `Cc1nocc1C(=O)N[C@H](C(=O)Nc1ccc(-c2c(C)n[nH]c2C)cc1)C1CCCCCC1` [Example 59, N-[(1S)-1-cycloheptyl-2-[4-(3,5-dimethyl-1H pyrazol-4-yl)anilino]-2-oxo-ethyl]-3-methyl-isoxazole-4-carboxamide], with less than 100 nM.

Turning to `Cc1n[nH]c(C)c1-c1ccc(NC(=O)[C@H](CC2CCCCC2)NC(=O)c2ccnn2C)cc1` [Example 15, N-[(1S)-1-(cyclohexylmethyl)-2-[4-(3,5-dimethyl-1H-pyrazol-4-yl)anilino]-2-oxo-ethyl] 2-methyl-pyrazole-3-carboxamide], the EC50 lay in the range of 100 to 1000 nM. Then `Cc1[nH]nc(C2CC2)c1-c1ccc(NC(=O)[C@@H](NC(=O)c2ccnn2C(C)C)C(C2CC2)C2CC2)cc1` [Example 383, N-[(1S)-2,2-dicyclopropyl-1-[[4-(3-cyclopropyl-5-methyl-1H-pyrazol-4-yl)phenyl]carbamoyl]ethyl]-2-isopropyl-pyrazole-3-carboxamide], with less than 100 nM; and `Cc1n[nH]c(CO)c1-c1ccc(NC(=O)[C@@H](NC(=O)c2ccnn2C(C)C)C(C2CC2)C2CC2)cc1` [Example 432, N-[(1S)-1-(Dicyclopropylmethyl)-2-[4-[5-(hydroxymethyl)-3-methyl-1H-pyrazol-4-yl]anilino]-2-oxo-ethyl]-2-isopropyl-pyrazole-3-carboxamide], with less than 100 nM. Then `Cc1n[nH]c(C)c1-c1ccc(NC(=O)[C@@H](NC(=O)c2ccnn2C(C)CO)C(C2CC2)C2CC2)cc1` (some centres unmarked) [Example 120], with 100 to 1000 nM; and `Cc1n[nH]c(C)c1-c1ccc(NC(=O)[C@@H](NC(=O)c2ccnn2CCC(C)O)[C@H]2CC[C@H](C)CC2)cc1` (stereo partly drawn) [Example 203, N-[(1S)-2-[4-(3,5-dimethyl-1H-pyrazol-4-yl)anilino]-1-(trans-4-methylcyclohexyl)-2-oxo-ethyl]-2-(3-hydroxybutyl)pyrazole-3-carboxamide], with less than 100 nM. Next, `Cc1n[nH]c(C(C)O)c1-c1ccc(NC(=O)[C@@H](NC(=O)C2(F)CC2)C2CCCCC2)cc1` (stereo partly drawn) [Example 441, N-[(1S)-1-cyclohexyl-2-[4-[5-(1-hydroxyethyl)-3-methyl-1H-pyrazol-4-yl]anilino]-2-oxo-ethyl]-1-fluoro-cyclopropanecarboxamide]: greater than 1000 nM. For `Cc1[nH]nc(CO)c1-c1ccc(NC(=O)[C@@H](NC(=O)OC(C)(C)C)C(c2ccccc2)c2ccccc2)cc1` [Example 437, tert-butyl N-[(1S)-1-benzhydryl-2-[4-[5-(hydroxymethyl)-3-methyl-1H-pyrazol-4-yl]anilino]-2-oxo-ethyl]carbamate], the EC50 was in the range of 100 to 1000 nM. Then `Cc1n[nH]c(C)c1-c1ccc(NC(=O)[C@@H](NC(=O)c2ccnn2C(C)C)[C@H]2CCOc3cc(F)ccc32)cc1` [Example 288, N-[(1S)-2-[4-(3,5-dimethyl-1H-pyrazol-4-yl)anilino]-1-[(4S)-7-fluorochroman-4-yl]-2-oxo-ethyl]-2-isopropyl-pyrazole-3-carboxamide], with less than 100 nM; and `Cc1n[nH]c(C)c1-c1ccc(NC(=O)[C@@H](NC(=O)c2ccnn2C)C2C(C)(C)C2(C)C)cc1` [Example 245, N-[(1S)-2-[4-(3,5-dimethyl-1H-pyrazol-4-yl)anilino]-2-oxo-1-(2,2,3,3-tetramethylcyclopropyl)ethyl]-2-methyl-pyrazole-3-carboxamide], with 100 to 1000 nM; and `Cc1n[nH]c(C)c1-c1ccc(NC(=O)[C@@H](NC(=O)c2ccnn2C)C(C2CCC2)C2CCC2)cc1` [Example 13, N-[(1S)-1-[di(cyclobutyl)methyl]-2-[4-(3,5-dimethyl-1H-pyrazol-4-yl)anilino]-2-oxo-ethyl]-2-methyl-pyrazole-3-carboxamide], with less than 100 nM. Then `Cc1n[nH]c(C)c1-c1ccc(NC(=O)[C@@H](NC(=O)C(C)(C)C)C(C2CC2)C2CC2)cc1` [Example 168, N-[(1S)-1-(dicyclopropylmethyl)-2-[4-(3,5-dimethyl-1H-pyrazol-4-yl)anilino]-2-oxo-ethyl]-2,2-dimethyl-propanamide], with greater than 1000 nM. Next, `Cn1cncc1-c1ccc(NC(=O)C(NC(=O)c2ccnn2C)C(c2cccc(Cl)c2)c2cccc(Cl)c2)cc1` (single isomer, unassigned) [Example 373A, N-(1,1-Bis(3-chlorophenyl)-3-((4-(1-methyl-1H-imidazol-5-yl)phenyl)amino)-3-oxopropan-2-yl)-1-methyl-1H-pyrazole-5-carboxamide]: 100 to 1000 nM; `Cc1n[nH]c(C)c1-c1ccc(NC(=O)[C@@H](NC(=O)c2ccnn2C2CCC2)C2CCCCC2)cc1` [Example 108, 2-cyclobutyl-N-[(1S)-1-cyclohexyl-2-[4-(3,5-dimethyl-1H-pyrazol-4-yl)anilino]-2-oxo-ethyl]pyrazole-3-carboxamide]: less than 100 nM. As to `Cn1cncc1-c1ccc(NC(=O)[C@H](Cc2cc(C#N)ccc2Cl)NC(=O)c2ccnn2C)cc1` [Example 342, N-[(1S)-1-[(2-chloro-5-cyano-phenyl)methyl]-2-[4-(3-methylimidazol-4-yl)anilino]-2-oxo-ethyl]-2-methyl-pyrazole-3-carboxamide], the EC50 was greater than 1000 nM. Then `Cn1cnnc1-c1ccc(NC(=O)[C@@H](NC(=O)c2ccnn2C)C2CCCCCC2)cc1` [Example 350, N-[(1S)-1-cycloheptyl-2-[4-(4-methyl-1,2,4-triazol-3-yl)anilino]-2-oxo-ethyl]-2-methyl-pyrazole-3-carboxamide], with greater than 1000 nM.
